Usually melting point stands for the temperature of the solid-liquid transition.

Consider 91 compounds from a melting point compilation (Tetko et al.; mined from patent text by program, amines drawn as free bases though some values may be those of a salt).

On to `CN(C)C1CCc2c(c3ccccc3n2CCC(=O)O)C1` (stereo unspecified), for which the melting point lay within 106 to 108 °C.

With `O=C(O)[C@@H]1O[C@@H](c2ccccc2)N(NS(=O)(=O)c2ccc([N+](=O)[O-])cc2)[C@H]1c1ccccc1`, the melting point lay within 61 to 65 °C.

`CC(C)[C@H](NCc1ccc(I)cc1)C(=O)O` yielded a melting point of 256 to 258 °C. To `CN(C)CCCn1c2c(c3cc(C(=O)O)ccc31)CCCCCC2` belongs 149 to 150 °C. The compound `Cc1ccc(S(=O)(=O)NC(C)(C)C)s1` showed a melting point of 89 °C. Regarding `COc1cc2ncnc(NC3=CC(=O)C4(C(C)C)OC4C3=O)c2cc1OC` (stereo unspecified), the melting point fell in the range of 188 to 190 °C. Take `COc1cc(N)c(C#N)cc1C(=O)O`: the melting point came out at 237 °C.

`COc1cc(Nc2nccc(-c3ccc(-c4nnn[nH]4)cc3)n2)cc(OC)c1OC` showed a melting point of 246 to 247 °C. On to `Cc1cnc(CNC(=O)c2sc(N3C[C@@H](C)N(Cc4cc(F)cc(F)c4)C3=O)nc2C)cn1`, for which the melting point was in the range of 131 to 132 °C. `CC=COc1cc(N)c(Cl)cc1C(=O)O` yielded a melting point of 136 to 137 °C.

`CCCc1nc(C)c2nnc3cc(OC)ccc3n12`: the melting point is 159 to 162 °C. `Cc1cc2c(cc1C)C(=O)C(C#N)C2=O` gave a melting point of 209 to 210 °C. In turn, `CCCCc1c(C(C)C)nc(C(C)C)c(C(C)O)c1-c1ccc(F)cc1` (stereo unspecified) had a melting point of 103 to 104 °C. Compound `COc1cc(C(=O)O)c(N)cc1C` came in with a melting point of 193 to 196 °C. In the case of `Cc1nn(-c2ccc(C(F)(F)F)cn2)cc1CCCO`, the melting point was 103 to 104 °C. With `CC1COC(=O)N1c1cc(-c2ccnc(Nc3cccc(Cl)c3)n2)ccn1` (stereo unspecified), the melting point was 177 to 178 °C. To `Cc1cc(O)c(O)cc1C` belongs 71 to 72 °C. `CC(C)(C)C(=O)OCOC(=O)Cc1ccc(O)cc1` returned a melting point of 159 to 161 °C.

Consider `N#CC(c1ccccc1)(c1ccccc1)c1ccc([N+](=O)[O-])cn1`, for which the melting point fell in the range of 94 to 99 °C. The compound `CC1(C)CC(=NNC(=N)NN=C2CC(C)(C)NC(C)(C)C2)CC(C)(C)N1` displayed a melting point of 163 to 167 °C. In turn, `CC(=O)OC1C(N2CCCCC2)CC2C3CCC4CCC(=O)CC4(C)C3CCC21C` (stereo unspecified) yielded a melting point of 165 to 167 °C. In turn, `CCCN(CCC)C(=O)Cn1c(-c2ccc(OC)cc2)nc2cccnc21` came in with a melting point of 127 to 129 °C. `CS(=O)(=O)Nc1cccc(NC(=O)C(=O)N2CCC(Cc3ccc(F)cc3)CC2)c1`: the melting point lay within 102 to 106 °C. The compound `O=[N+]([O-])c1ccc(Nc2cccc(C(F)(F)C(F)(F)C(F)(F)C(F)(F)C(F)(F)C(F)(F)C(F)(F)C(F)(F)F)c2)c([N+](=O)[O-])c1` yielded a melting point of 124 to 125 °C.

Compound `O=C(O)C=CC(=O)c1cc(Cl)c(Cl)cc1Cl` displayed a melting point of 177 to 181 °C. On to `Cn1cccc1CN1CCCC1=O`, for which the melting point is 44.5 to 47.5 °C. Take `Cc1ccc(-c2nc(C(F)(F)F)nc(Cl)c2-c2ccccc2)cc1`: the melting point lay in the range of 97 to 100 °C.

Take `O=c1ccnc(NCCCN(Cc2cccc(Cl)c2)c2ccccn2)[nH]1`: the melting point fell in the range of 74 to 78 °C. To `CCc1c(-c2ccc(OC)cc2)c2c(C(=O)OC)c(C(=O)OC)c3cc(OC)cc1n32` belongs 153 to 155 °C. `CC(=O)CCc1ccc2c(c1)Cc1cc([N+](=O)[O-])ccc1-2`: the melting point was in the range of 159 to 162 °C.

Turning to `N=C1C2CC(F)CN2C(=O)CN1C1CCC(Cn2cncn2)C1` (stereo unspecified), the melting point was in the range of 158 to 162 °C. Regarding `CCCN(c1ccccc1)c1nc(C)nc(SC)c1[N+](=O)[O-]`, the melting point lay within 117 to 119 °C. To `COc1ccc2[nH]c(C(=O)c3cc4ccccc4[nH]3)cc2c1` belongs 112 °C.

As for `CN1CCSC1=NC(=Nc1ccc(Cl)cc1)N1CCCC1`, the melting point is 124 to 127 °C. `O=C(Nc1nc(=O)n(S(=O)(=O)c2ccc(Cl)cc2)cc1F)c1ccc(Cl)cc1` showed a melting point of 169 to 172 °C.

The compound `O=C(Cc1ccc(-c2ccc(F)cc2F)c(F)c1)NO` gave a melting point of 149 to 150 °C. In the case of `Cc1cc(C(=O)N2C(C)CCCC2C)ccc1[N+](=O)[O-]` (stereo unspecified), the melting point is 99.7 to 100 °C. `O=C(NCCCC(F)(F)F)c1nc(-c2ccc(Cl)cc2Cl)c(-c2ccc(Cl)cc2)s1` registered a melting point of 99 to 101 °C. As for `CC(=O)NC(C)c1c[nH]c(C)n1` (stereo unspecified), the melting point was in the range of 125 to 128 °C. As for `COC(=O)CCCCCOc1ccc(N=C=O)cc1`, the melting point lay in the range of 47 to 50 °C. To `CN1C(=O)[C@@H](NC(=O)C2CCCCC2)N=C(c2ccccc2)c2ccccc21` belongs 212 to 214 °C; to `CC(C)(C)OC(=O)N1CCN(Cc2ccc(NC(=O)Oc3ccccc3)c(C(F)(F)F)c2)CC1`, 143 to 147 °C; to `CC(C)(COc1ccc(CSC2NC(=O)CC2=O)cc1)c1ccccc1` (stereo unspecified), 107 to 108 °C. `Nc1ccccc1Oc1c(C(=O)O)[nH]c2ccccc12` returned a melting point of 217 to 218 °C. `CCC1(C)CC(S(=O)(=O)C(Cl)(Cl)c2cccc(F)c2)=NO1` (stereo unspecified) yielded a melting point of 100 °C. On to `CCOC(=O)c1cc([N+](=O)[O-])ccc1NC(=O)OC(C)(C)C`, for which the melting point was 118 to 121 °C. `CN1C(=O)C(C)(C)Oc2ccc(C3=NNC(=O)CC3)cc21` showed a melting point of 169 to 171 °C. For `COc1cccc([C@H]2O[C@H](CC(=O)Nc3nc(C)c(C(=O)OC(C)(C)C)s3)C(=O)N(CC(C)(C)COC(C)=O)c3ccc(Cl)cc32)c1OC`, the melting point lay within 211 to 213 °C. Consider `O=C(O)c1cc2c(cc1C(=O)O)COCC2`, for which the melting point was in the range of 179 to 181 °C. In the case of `COc1ccc(-c2ccncc2)cc1Br`, the melting point lay in the range of 82 to 84 °C.

In turn, `CCCCc1nc2c(N)nc3c(c2n1CC(C)(C)OCCS(C)(=O)=O)CCCC3` yielded a melting point of 146 to 148 °C. To `CC(C)(C)NC(=O)c1ccccc1NS(=O)(=O)C(F)(F)F` belongs 108 to 110 °C. `CCC(=NNC(=O)c1ccccc1)c1cccnc1`: the melting point is 169 °C. For `OC(CN1CCN(C(c2ccccc2)c2ccccc2)CC1)c1ccc(OCc2ccccc2)cc1OCc1ccccc1` (stereo unspecified), the melting point stood at 151 °C. For `O=C(NCCCCNS(=O)(=O)c1ccc(Oc2ccccc2)cc1)P(=O)(O)O`, the melting point is 143 to 145 °C. `Cc1oc(-c2ccc(C(F)(F)F)cc2)nc1CC#N`: the melting point was in the range of 85 to 86 °C. Consider `CC(C)(C)OC(=O)NCC1Cc2ccc(CC(=O)O)cc2C1` (stereo unspecified), for which the melting point fell in the range of 123 to 124 °C.

Compound `CCOC(=O)C=C(C)c1ccc(-c2ccc(Cl)cc2)cc1` had a melting point of 91 to 94 °C. To `Cc1c(-c2ccccc2)c(N2CC[C@H](N(C)C)C2)c2oc(/C=C/c3ccccc3)nc2c1C#N` belongs 165 to 166 °C; to `C=CCOc1ccccc1S(=O)(=O)NC(=O)Nc1nc(C)nc(OC)n1`, 146 to 147 °C; to `CCOC(Nc1ccccc1)(OCC)c1ccnc(C(=O)c2ccc(C)cc2)c1`, 95 to 96 °C. In turn, `O=C(NCC(F)(F)F)c1ccc(C=NO)cc1` returned a melting point of 153 to 154 °C.

As to `COc1ccc([N+](=O)[O-])cc1N1CCNCC1`, the melting point lay within 84 to 87 °C. For `O=C(O)CNC1CCCc2ccccc21` (stereo unspecified), the melting point was found to be 227 °C. Regarding `O=[N+]([O-])c1c(Cl)cccc1-c1nc2ccccc2[nH]1`, the melting point is > 260 °C. For the compound `CC1(C)CC(=O)c2cc(O)ccc2O1`, the melting point was 158 °C. The compound `CCc1cccc(CNC[C@@H](O)[C@H](Cc2cc(F)cc(F)c2)NC(=O)c2ccc(CS(C)(=O)=O)s2)c1` yielded a melting point of 128 to 131 °C. To `Cc1cc(C)c2c(-c3ccc(C(C)C)cc3)coc2c1` belongs 44 to 45 °C. In turn, `O=C(Nc1ccc2ccc(Cl)nc2n1)c1ccc(F)cc1` showed a melting point of 236 °C. The compound `Cc1cc2c(c(C)c1NCc1ccccc1)CC(C)(C)O2` showed a melting point of 80 to 81 °C. To `COc1cc(O)ccc1OCc1ccccc1` belongs 84 °C; to `CCc1ccc(-c2nn(C)c(=O)c3ccccc23)c(CC)c1`, 94.5 to 96.5 °C. To `CCC(=O)Nc1cc(C(C)(C)C)[nH]n1` belongs 228 to 229 °C; to `O=[N+]([O-])c1cc(Cl)c(Cl)cc1N[C@H]1C=C[C@@H](CO)C1`, 94.5 to 96.5 °C; to `O=C(CC(CSC(=O)c1ccccc1)C(=O)O)c1ccc(Br)cc1` (stereo unspecified), 133 to 135 °C.

`CCOC(=O)c1cc2ccc3sc4ccccc4c3c2n1C` returned a melting point of 85 to 86 °C.

`COc1cc(C(=O)Nc2ccc3ccc(Cl)nc3n2)cc(OC)c1OC` displayed a melting point of 210 °C. Take `CC(C)(C)c1ccc(C[C@H]2NC(=O)O[C@H]2c2ccc(F)cc2)cc1` (racemic): the melting point was in the range of 218 to 219 °C. With `CN(C)Cc1ccc(CSCCNC(=N)N[N+](=O)[O-])s1`, the melting point was 118 °C.

For the compound `Cn1cc(C2=C(c3c4n(c5ccccc35)CCC(N=C=S)C4)C(=O)NC2=O)c2ccccc21` (stereo unspecified), the melting point fell in the range of 285 to 287 °C. Regarding `CC(C)(C)CC(C)(C)c1cc(Cl)c(O)c(-n2nc3ccc(C(F)(F)F)cc3n2)c1`, the melting point was in the range of 72 to 81 °C. In the case of `O=C(Cc1ccccc1)C(C[N+](=O)[O-])c1ccccc1` (stereo unspecified), the melting point lay in the range of 99 to 100 °C. Regarding `Cc1cc(Cc2cnc(NCCSCc3ncccc3Br)[nH]c2=O)cnc1C`, the melting point lay within 105 to 107 °C. In turn, `CCOC(=O)C1=C(C)N=C(SCc2ccccc2)N(C(=O)OCC)C1c1ccccc1[N+](=O)[O-]` (stereo unspecified) came in with a melting point of 110 to 112 °C. For `CC1(N2Cc3cc(CNC(=O)Cc4ccc(Cl)cc4)ccc3C2=O)CCC(=O)NC1=O` (stereo unspecified), the melting point fell in the range of 230 to 232 °C. `O=C(Nc1nccs1)c1cccc(C[C@@H]2COc3ccc(OCc4nc5cc(F)ccc5s4)cc3[C@@H]2O)c1` (relative stereo): the melting point amounted to 120 °C. To `CCOc1cc(COc2nn(-c3ccccc3)cc2C=O)ccc1OCc1nc(-c2ccco2)oc1C` belongs 149 to 150 °C.

On to `COc1ccc(C(C=NO)C(C)C)cc1OC` (stereo unspecified), for which the melting point came to 89 °C. Turning to `O=C1CCC2C=C(c3cccnc3)C(F)=CC2N1` (stereo unspecified), the melting point was found to be 228 °C. Regarding `COc1cc(C=O)cc(Cl)c1Cl`, the melting point lay in the range of 97 to 98.5 °C.

`CN(C)C(=O)Sc1ccccc1C#N`: the melting point is 70 °C.
